This is an account of results in patent US10294202B2, “Pyrrolidinones as herbicides” (FMC Corporation, priority 2013, dated 2019).

Assay [1] has as its system chickweed. The assay can be described thus: Test D pre-/postemergence herbicide test. As to conditions: for Plant response rating: Chickweed, scale 0 to 100; for Plant response rating, Chickweed: scale 0 to 100 (0 no effect, 100 complete control). Format: in vivo, Stellaria media. From the text:
(§1) Seeds of plant species selected from bluegrass (annual bluegrass, Poa annua), blackgrass (Alopecurus myosuroides), canarygrass (littleseed canarygrass, Phalaris minor), chickweed (common chickweed, Stellaria media), galium (catchweed bedstraw, Galium aparine), bromegrass, downy (downy bromegrass, Bromus tectorum), field poppy (Papaver rhoeas), field violet (Viola arvensis), foxtail, green (green foxtail, Setaria viridis), deadnettle (henbit deadnettle, Lamium amplexicaule), ryegrass, Italian (Italian ryegrass, Lolium multiflorum), kochia (Kochia scoparia), lambsquarters (Chenopodium album), oilseed rape (Brassica napus), pigweed (Amaranthus retroflexus), chamomile (scentless chamomile, Matricaria inodora), Russian thistle (Salsola kali), speedwell (bird's-eye speedwell, Veronica persica), barley, spring (spring barley, Hordeum vulgare), wheat, spring (spring wheat, Triticum aestivum), buckwheat, wild (wild buckwheat, Polygonum convolvulus), mustard, wild (wild mustard, Sinapis arvensis), oat, wild (wild oat, Avena fatua), radish, wild (wild radish, Raphanus raphanistrum), […]), barley, winter (winter barley, Hordeum vulgare), and wheat, winter (winter wheat, Triticum aestivum) were planted into a silt loam soil and treated preemergence with test chemicals formulated in a non-phytotoxic solvent mixture which included a surfactant. At the same time, these species were planted in pots containing Redi-Earth® planting medium (Scotts Company, 14111 Scottslawn Road, Marysville, Ohio 43041) comprising spaghnum peat moss, vermiculite, wetting agent and starter nutrients and treated with postemergence applications of the test chemicals formulated in the same manner. Plants ranged in height from 2 to 18 cm (1- to 4-leaf stage). Treated plants and controls were maintained in a controlled growth environment for 7 to 21 days after which time all species were compared to controls and visually evaluated. Plant response ratings, summarized in Table D, are based on a scale of 0 to 100 where 0 is no effect and 100 is complete control. A dash (-) response means no test result.

The subject of assay [2] is mustard, wild. Briefly: Test D pre-/postemergence herbicide test. Format: in vivo, Sinapis arvensis. To be noted: for Plant response rating: Mustard, Wild, scale 0 to 100; for Plant response rating, Mustard, Wild: scale 0 to 100 (0 no effect, 100 complete control).
Source text: as §1

In assay [3] the test system is pigweed. The assay can be described thus: Test D pre-/postemergence herbicide test. Type of assay: in vivo, Amaranthus retroflexus. To be noted: for Plant response rating: Postemergence, Pigweed, scale 0 to 100; for Plant response rating, Pigweed: Preemergence, scale 0 to 100 (0 no effect, 100 complete control).
Source text: as §1

Assay [4] deals with goosegrass. Briefly: Test E preemergence herbicide test. On the set-up: key: 0 = no effect, 100 = complete control. Format: in vivo, Eleusine indica. The text has this: (§2) Seeds of plant species selected from corn (Zea mays), soybean (Glycine max), velvetleaf (Abutilon theophrasti), lambsquarters (Chenopodium album), wild poinsettia (Euphorbia heterophylla), pigweed, palmer (palmer pigweed, Amaranthus palmeri), waterhemp (common waterhemp, Amaranthus rudis), surinam grass (Brachiaria decumbens), crabgrass, large (large crabgrass, Digitaria sanguinalis), crabgrass, Brazil (Brazilian crabgrass, Digitaria horizontalis), panicum, fall (fall panicum, Panicum dichotomiflorum), foxtail, giant (giant foxtail, Setaria faberii), foxtail, green (green foxtail, Setaria viridis), goosegrass (Eleusine indica), johnsongrass (Sorghum halepense), ragweed (common ragweed, Ambrosia elatior), barnyardgrass (Echinochloa crus-galli), sandbur (southern sandbur, Cenchrus echinatus), arrowleaf […] rhombifolia), ryegrass, Italian (Italian ryegrass, Lolium multiflorum), dayflower, VA (Virginia dayflower, Commelina virginica), field bindweed (Convolvulus arvensis), morningglory (Ipomoea coccinea), nightshade (eastern black nightshade, Solanum ptycanthum), kochia (Kochia scoparia), nutsedge, yellow (yellow nutsedge, Cyperus esculentus), cocklebur (common cocklebur, Xanthium strumarium), smartweed (ladysthumb smartweed, Polygonum Persicaria) and beggarticks (hairy beggarticks, Bidens pilosa), were planted into a silt loam soil and treated preemergence with test chemicals formulated in a non-phytotoxic solvent mixture which included a surfactant. Treated plants and controls were maintained in a greenhouse for 21 days, after which time all species were compared to controls and visually evaluated. Plant response ratings, summarized in Table E, are based on a scale of 0 to 100 where 0 is no effect and 100 is complete control. A dash (-) response means no test result.

The test system of assay [5] is sandbur. Briefly: Test E preemergence herbicide test. Type of assay: in vivo, Cenchrus echinatus. On the set-up: key: 0 = no effect, 100 = complete control.
Source text: as §2

In assay [6] the test system is morningglory. Briefly: Test E preemergence herbicide test. Type of assay: in vivo, Ipomoea coccinea. Also on record: key: 0 = no effect, 100 = complete control.
Source text: as §2

Assay [7] concerns wild poinsettia. The assay can be described thus: Test E preemergence herbicide test. Also on record: key: 0 = no effect, 100 = complete control. Format: in vivo, Euphorbia heterophylla.
Source text: as §2

Regarding `O=C1NCC(c2ccc(F)c(F)c2)C1C(=O)Nc1cccc(F)c1` (racemic) [Compound 12], the Plant response rating is given as 0 in assay [1] (Postemergence, 16 g ai/ha); 0 in assay [1] (Postemergence, 31 g ai/ha); 0 in assay [1] (Postemergence, 62 g ai/ha); 20 in assay [1] (Postemergence, 125 g ai/ha); 30 in assay [1] (Postemergence, 250 g ai/ha); 0 in assay [1] (Preemergence, 125 g ai/ha). Moreover, the Plant response rating was 0 in assay [1] (Preemergence, 250 g ai/ha); 0 in assay [2] (Postemergence, 16 g ai/ha); 10 in assay [2] (Postemergence, 31 g ai/ha); 40 in assay [2] (Postemergence, 62 g ai/ha); 100 in assay [2] (Postemergence, 125 g ai/ha); 20 in assay [2] (Preemergence, 125 g ai/ha). Moreover, the Plant response rating in assay [2] (Preemergence, 250 g ai/ha) is reported as 70; in assay [3] (16 g ai/ha), 0; in assay [3] (31 g ai/ha), 10; in assay [3] (62 g ai/ha), 25; in assay [3] (125 g ai/ha), 30; in assay [3] (250 g ai/ha), 50. The “Plant response rating, Chickweed” value in assay [1] (Preemergence, 62 g ai/ha) was determined as 0. Moreover, the “Plant response rating, Mustard, Wild” value in assay [2] (Preemergence, 31 g ai/ha) is 0; in assay [2] (Preemergence, 62 g ai/ha) it was 0; in assay [2] (Preemergence, 16 g ai/ha), 0. In addition, the “Plant response rating, Pigweed” value in assay [3] (31 g ai/ha), in assay [3] (62 g ai/ha), in assay [3] (125 g ai/ha), in assay [3] (250 g ai/ha) and in assay [3] (16 g ai/ha) was 0 throughout.

As to `O=C1NCC(c2ccc(F)cc2)C1C(=O)Nc1ccccc1F` (racemic) [Compound 16], the “Plant response rating, Goosegrass” value in assay [4] (16 g ai/ha), in assay [4] (31 g ai/ha), in assay [4] (62 g ai/ha), in assay [4] (125 g ai/ha) and in assay [4] (250 g ai/ha) was 0 throughout. The “Plant response rating, Sandbur” value in assay [5] (16 g ai/ha) is listed as 0; in assay [5] (31 g ai/ha) it was 0; in assay [5] (62 g ai/ha), 35; in assay [5] (125 g ai/ha), 70; in assay [5] (250 g ai/ha) it was 95. Besides, the “Plant response rating, Morningglory” value in assay [6] (16 g ai/ha), in assay [6] (31 g ai/ha), in assay [6] (62 g ai/ha), in assay [6] (125 g ai/ha) and in assay [6] (250 g ai/ha) was 0 each time. Also, the “Plant response rating, Poinsettia, Wild” value in assay [7] (16 g ai/ha), in assay [7] (31 g ai/ha), in assay [7] (62 g ai/ha), in assay [7] (125 g ai/ha) and in assay [7] (250 g ai/ha) was 0 each time.

In the case of `O=C1NCC(c2cc(F)c(F)c(F)c2)C1C(=O)Nc1ccccc1C(F)(F)F` (racemic) [Compound 33], the Plant response rating in assay [1] (Postemergence, 16 g ai/ha) amounted to 0; in assay [1] (Postemergence, 31 g ai/ha), 0; in assay [1] (Postemergence, 62 g ai/ha) it was 0; in assay [1] (Postemergence, 125 g ai/ha) it was 10; in assay [1] (Postemergence, 250 g ai/ha) it was 10; in assay [2] (Postemergence, 16 g ai/ha), 0. Also, the Plant response rating in assay [2] (Postemergence, 31 g ai/ha) was 0; in assay [2] (Postemergence, 62 g ai/ha), 0; in assay [2] (Postemergence, 125 g ai/ha), 0; in assay [2] (Postemergence, 250 g ai/ha), 0; in assay [3] (16 g ai/ha) it was 0; in assay [3] (31 g ai/ha), 0. For the same compound, the Plant response rating in assay [3] (62 g ai/ha) was 0; in assay [3] (125 g ai/ha) it was 10; in assay [3] (250 g ai/ha), 10.

Regarding `O=C1NCC(c2cc(F)c(F)c(F)c2)C1C(=O)Nc1ccccc1F` (racemic) [Compound 34], the Plant response rating came out at 0 in assay [1] (Postemergence, 16 g ai/ha); 0 in assay [1] (Postemergence, 31 g ai/ha); 0 in assay [1] (Postemergence, 62 g ai/ha); 10 in assay [1] (Postemergence, 125 g ai/ha); 20 in assay [1] (Postemergence, 250 g ai/ha); 0 in assay [2] (Postemergence, 16 g ai/ha). Besides, the Plant response rating in assay [2] (Postemergence, 31 g ai/ha) came out at 0; in assay [2] (Postemergence, 62 g ai/ha), 0; in assay [2] (Postemergence, 125 g ai/ha), 10; in assay [2] (Postemergence, 250 g ai/ha) it was 20; in assay [3] (16 g ai/ha), 0; in assay [3] (31 g ai/ha), 0. Moreover, the Plant response rating in assay [3] (62 g ai/ha) was determined as 0; in assay [3] (125 g ai/ha), 0; in assay [3] (250 g ai/ha), 10.

As for `O=C1NCC(c2cccc(C(F)(F)F)c2)C1C(=O)Nc1ccc(F)cc1F` (racemic) [Compound 207], the “Plant response rating, Chickweed” value in assay [1] (Preemergence, 31 g ai/ha) worked out at 60; in assay [1] (Preemergence, 62 g ai/ha) it was 60; in assay [1] (Preemergence, 125 g ai/ha), 70. Besides, the Plant response rating in assay [1] (Preemergence, 250 g ai/ha) came to 100; in assay [2] (Preemergence, 250 g ai/ha), 30. The “Plant response rating, Mustard, Wild” value in assay [2] (Preemergence, 31 g ai/ha) was determined as 10; in assay [2] (Preemergence, 62 g ai/ha), 25; in assay [2] (Preemergence, 125 g ai/ha) it was 25. Also, the “Plant response rating, Pigweed” value in assay [3] (31 g ai/ha) came out at 0; in assay [3] (62 g ai/ha) it was 0; in assay [3] (125 g ai/ha) it was 0; in assay [3] (250 g ai/ha), 5.

In the case of `O=C1NCC(c2cccc(C(F)(F)F)c2)C1C(=O)Nc1cccc(F)c1F` (centres unmarked) [Compound 241], the “Plant response rating, Chickweed” value in assay [1] (Preemergence, 31 g ai/ha) stood at 90; in assay [1] (Preemergence, 62 g ai/ha) it was 80; in assay [1] (Preemergence, 125 g ai/ha) it was 95. Further, the Plant response rating in assay [1] (Preemergence, 250 g ai/ha) worked out at 100; in assay [2] (Preemergence, 250 g ai/ha), 25. The “Plant response rating, Mustard, Wild” value in assay [2] (Preemergence, 31 g ai/ha) came out at 10; in assay [2] (Preemergence, 62 g ai/ha), 15; in assay [2] (Preemergence, 125 g ai/ha) it was 15. Also, the “Plant response rating, Pigweed” value in assay [3] (31 g ai/ha) is 15; in assay [3] (62 g ai/ha), 15; in assay [3] (125 g ai/ha), 85; in assay [3] (250 g ai/ha), 80.
